Target: T1, individually expressed N half of ABCR containing 1D4 epitope tag (N*) (Homo sapiens, UniProt P78363)
T1 construct: The cDNAs coding for the N-half (amino acids 1-1325) and C-half (amino acids 1326-2273) of ABCR; made in house; host or cells: COS-1 cells
T1 sequence (P78363 1-1325): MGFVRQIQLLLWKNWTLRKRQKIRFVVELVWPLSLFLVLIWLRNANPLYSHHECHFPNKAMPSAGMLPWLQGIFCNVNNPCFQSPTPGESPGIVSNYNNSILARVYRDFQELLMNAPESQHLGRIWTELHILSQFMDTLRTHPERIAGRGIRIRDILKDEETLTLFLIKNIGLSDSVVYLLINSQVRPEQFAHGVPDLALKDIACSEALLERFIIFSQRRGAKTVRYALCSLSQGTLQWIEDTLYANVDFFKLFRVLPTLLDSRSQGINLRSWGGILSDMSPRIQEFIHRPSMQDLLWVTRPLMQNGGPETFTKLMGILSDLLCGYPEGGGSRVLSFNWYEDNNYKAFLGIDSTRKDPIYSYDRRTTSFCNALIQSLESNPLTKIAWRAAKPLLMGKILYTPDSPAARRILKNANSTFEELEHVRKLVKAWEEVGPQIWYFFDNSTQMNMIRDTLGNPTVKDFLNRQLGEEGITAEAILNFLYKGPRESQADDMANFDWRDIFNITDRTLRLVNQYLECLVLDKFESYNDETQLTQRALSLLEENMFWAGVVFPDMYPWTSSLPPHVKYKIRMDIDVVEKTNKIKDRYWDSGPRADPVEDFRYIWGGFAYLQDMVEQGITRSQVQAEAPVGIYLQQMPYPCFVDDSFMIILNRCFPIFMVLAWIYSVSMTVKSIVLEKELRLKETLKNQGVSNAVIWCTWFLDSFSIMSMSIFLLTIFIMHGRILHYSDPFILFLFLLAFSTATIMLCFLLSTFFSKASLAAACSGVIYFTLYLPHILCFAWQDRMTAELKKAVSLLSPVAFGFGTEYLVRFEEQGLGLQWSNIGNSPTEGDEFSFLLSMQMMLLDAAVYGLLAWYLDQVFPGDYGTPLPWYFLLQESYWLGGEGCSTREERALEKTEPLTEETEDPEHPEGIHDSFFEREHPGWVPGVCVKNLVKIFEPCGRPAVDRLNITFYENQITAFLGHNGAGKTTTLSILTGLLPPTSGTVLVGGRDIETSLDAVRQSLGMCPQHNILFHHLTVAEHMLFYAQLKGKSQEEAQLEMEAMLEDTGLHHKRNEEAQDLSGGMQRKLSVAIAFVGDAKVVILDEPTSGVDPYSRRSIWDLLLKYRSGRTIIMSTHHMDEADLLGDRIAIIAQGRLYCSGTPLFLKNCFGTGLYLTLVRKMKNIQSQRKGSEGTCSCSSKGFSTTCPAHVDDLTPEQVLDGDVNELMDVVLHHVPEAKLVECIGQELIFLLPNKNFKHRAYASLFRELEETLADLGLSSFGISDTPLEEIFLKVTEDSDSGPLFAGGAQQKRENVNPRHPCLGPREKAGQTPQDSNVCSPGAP
Assay: Retinal-stimulated ATPase activity of purified protein reconstituted in lipid vesicles
Format: biochemical
Details: individually expressed in COS-1 cells, 1D4-tagged, 50 μM [α32P]ATP
Description: Membranes (from two 10 cm dishes) were solubilized in 0.5 ml of 1% Triton-X100 in Buffer A (140 mM NaCl, 20 mM Tris-HCl, pH 7.4) for 20 min on ice. For ATPase assays, the membrane preparation step was omitted and the cell suspension was solubilized directly in Buffer B (10 mg/ml soybean phospholipids, 10% glycerol, 1 mM dithiothreitol, 100 mM NaCl, 3 mM MgCl2, 50 mM NaHEPES, pH 7.4) containing 18 mM CHAPS. The supernatant after a 10 min centrifugation at 40,000 rpm (TLA100.4 rotor) was mixed with 50 μl Rim3F4 Sepharose 2B for 1 h at 4° C. The beads were washed 6 times in Buffer A containing 0.2% Triton X-100 or Buffer B containing 10 mM CHAPS and eluted with 4% SDS (for electrophoresis) or 0.2 mg/ml Rim3F4 peptide (for reconstitution and determination of ATPase activity). Purified protein (24 μl) was incubated with 6 μl of 50 mg/ml lipid (1:1 mixture of dioleoylphosphatidylethanolamine and brain polar lipid, by weight) and 3 μl n-octylglucoside for 30 min on ice. The mixture was diluted rapidly with 200 μl of Buffer C (1 mM dithiothreitol, 140 mM NaCl, 25 mM NaHEPES, pH 7.4) and passed through a 200 μl Extracti-gel column (Pierce). The flow-through containing the reconstituted protein was used for determination of ATPase activity.
ATPase activity was measured as described previously (Ahn, J., Wong, J. T., and Molday, R. S. (2000) J Biol Chem 275(27), 20399-405) using 50 μM [α^32P]ATP and thin layer chromatography. The all-trans retinal concentration was determined spectrophotometrically (λ383 nm=42.88 mM^−1 cm^−1). Protein concentration was estimated from the eluate before reconstitution by laser densitometry of Coomassie blue stained gels using bovine serum albumin as a standard. […] Direct protein measurements after reconstitution by densitometry of Western blots was about half of that in the eluate. […]
ATPase Activity of Expressed N and C Halves—The basal and retinal activated ATPase activity of full-length ABCR and the N and C halves individually or co-expressed in COS-1 cells was determined after immunoaffinity purification and reconstitution into lipid vesicles. […]

CC1=C(/C=C/C(C)=C/C=C/C(C)=C/C=O)C(C)(C)CCC1 [all-trans retinal]
stimulation of ATPase activity: not stimulated
